From patent US10851067B2, “Kv7 channel activators compositions and methods of use” (Knopp Biosciences LLC, priority 2018, dated 2020)

biological target: T1, Kv7.2/7.3 (Homo sapiens, UniProt O43525+O43526); assay: Kv7.2/7.3 FluxOR Potassium Ion Channel Assay (Invitrogen, F20015); type: cell-based; settings: not given

| Compound | EC50 |
| --- | --- |
| CCOC(=O)Nc1ccc(NCc2ccc(F)cc2)cc1N [ezogabine] | 1100 nM |

biological target: T1, Kv7.2/7.3; assay: Kv7.2/7.3 Thallium Flux Assay; type: cell-based; design: host or cells: HEK cells, tetracycline-inducible expression; settings: read-out: Kv7.2/7.3 Activity: EC50 of Kv7.2/Kv7.3 activation
Outline: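 Tetracycline-induced (10 ng/mL) hKv7.2/7.3 cell line tested over eight concentrations, 0.014–30 μM, in 0.1% DMSO extracellular solution; FluxOR II thallium-sensitive dye read at Ex 475/Em 530 nm. After 15 sec baseline, thallium/potassium stimulus injected, endpoint at 90 sec; responses normalized to retigabine ([…] max), Hill fit gave EC50 and maximal response.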

| Compound | EC50 |
| --- | --- |
| COc1cc(C#N)cc2c1nc(NC(=O)CC1CC(F)(F)C1(F)F)n2C1(C)CCC1 (single isomer, unassigned) [Example 553, N-(6-cyano-4-methoxy-1-(1-methylcyclobutyl)-1H-benzo[d]imidazol-2-yl)-2-(2,2,3,3-tetrafluorocyclobutyl)acetamide] | < 1000 nM |
| CC(C)(C)n1c(NC(=O)CC2CC(F)(F)C2(F)F)nc2cc(F)ccc21 (single isomer, unassigned) [Example 529, N-(1-(tert-butyl)-5-fluoro-1H-benzo[d]imidazol-2-yl)-2-(2,2,3,3-tetrafluorocyclobutyl)acetamide] | < 1000 nM |
| CC1(n2c(NC(=O)CC3CC(F)(F)C3(F)F)nc3c(F)cc(C#N)c(F)c32)CCC1 (single isomer, unassigned) [Example 504, N-(6-cyano-4,7-difluoro-1-(1-methylcyclobutyl)-1H-benzo[d]imidazol-2-yl)-2-(2,2,3,3-tetrafluorocyclobutyl)acetamide] | < 1000 nM |
| CC(C)(C)CC(=O)Nc1nc2cccc(OC(F)(F)F)c2n1C1CCC1 [Example 516, N-(1-cyclobutyl-7-(trifluoromethoxy)-1H-benzo[d]imidazol-2-yl)-3,3-dimethylbutanamide] | < 1000 nM |
| CC(C)(C)n1c(NC(=O)CC2(C(F)(F)F)CC2)nc2cc(F)cc(F)c21 [Example 531, N-(1-(tert-butyl)-5,7-difluoro-1H-benzo[d]imidazol-2-yl)-2-(1-(trifluoromethyl)cyclopropyl)acetamide] | < 1000 nM |
| CC(C(=O)Nc1nc2ccc(C(C)(C)O)cc2n1C1(C)CCC1)C(C)(C)C(F)(F)F (single isomer, unassigned) [Example 492, 4,4,4-trifluoro-N-(6-(2-hydroxypropan-2-yl)-1-(1-methylcyclobutyl)-1H-benzo[d]imidazol-2-yl)-2,3,3-trimethylbutanamide] | < 1000 nM |
| CC(C(=O)Nc1nc2c(F)cc(C#N)cc2n1C1(C)CCC1)C(C)(C)C(F)(F)F (single isomer, unassigned) [Example 562, N-(6-cyano-4-fluoro-1-(1-methylcyclobutyl)-1H-benzo[d]imidazol-2-yl)-4,4,4-trifluoro-2,3,3-trimethylbutanamide] | < 1000 nM |
| CC(C)(O)c1ccc2nc(NC(=O)CC34CC(C3)C4)n(C3(C)CCC3)c2c1 [Example 511, 2-(bicyclo[1.1,1]pentan-1-yl)-N-(6-(2-hydroxypropan-2-yl)-1-(1-methylcyclobutyl)-1H-benzo[d]imidazol-2-yl)acetamide] | < 1000 nM |
| CC(C(=O)Nc1nc2c(F)cc(C(C)(C)O)cc2n1C1CCC1)C1(C(F)(F)F)CC1 (single isomer, unassigned) [Example 508, N-(1-cyclobutyl-4-fluoro-6-(2-hydroxypropan-2-yl)-1H-benzo[d]imidazol-2-yl)-2-(1-(trifluoromethyl)cyclopropyl)propanamide] | 1000 to 3000 nM |
| CC(C(=O)Nc1nc2ccc(C(C)(C)O)cc2n1C1(C)CCC1)C1(C(F)(F)F)CC1 (single isomer, unassigned) [Example 489, N-(6-(2-hydroxypropan-2-yl)-1-(1-methylcyclobutyl)-1H-benzo[d]imidazol-2-yl)-2-(1-(trifluoromethyl)cyclopropyl) propanamide] | < 1000 nM |
| CC(C)(O)c1ccc2nc(NC(=O)Cc3ccc(F)cc3F)n(C3(C)CCC3)c2c1 [Example 505, 2-(2,4-difluorophenyl)-N-(6-(2-hydroxypropan-2-yl)-1-(1-methylcyclobutyl)-1H-benzo[d]imidazol-2-yl)acetamide] | < 1000 nM |
| CC(C)(C)n1c(NC(=O)CC2CC(F)(F)C2(F)F)nc2cc(F)c(F)cc21 (single isomer, unassigned) [Example 557, N-(1-(tert-butyl)-5,6-difluoro-1H-benzo[d]imidazol-2-yl)-2-(2,2,3,3-tetrafluorocyclobutyl)acetamide] | < 1000 nM |
| CC1(n2c(NC(=O)CC3(C(F)(F)F)CC3)nc3cc(F)c(F)c(F)c32)CCC1 [Example 534, N-(5,6,7-trifluoro-1-(1-methylcyclobutyl)-1H-benzo[d]imidazol-2-yl)-2-(1-(trifluoromethyl)cyclopropyl)acetamide] | < 1000 nM |
| CC(C)(O)c1ccc2nc(NC(=O)CC3CC(F)(F)C3(F)F)n(C3(C)CCC3)c2c1 (stereo not drawn) [Example 491, N-(6-(2-hydroxypropan-2-yl)-1-(1-methylcyclobutyl)-1H-benzo[d]imidazol-2-yl)-2-(2,2,3,3-tetrafluorocyclobutyl)acetamide] | < 1000 nM |
